Measurements reported in patent US11497212B2, “Substituted thiophenyl uracils, salts thereof and the use thereof as herbicidal agents” (Syngenta Crop Protection AG, priority 2017, dated 2022).

Assays:
Type in all cases: in vivo
Zea mays [1] = assay: Crop compatibility pre-emergence (greenhouse pot trial); conditions: application rate 20 g/ha, effect vs untreated controls
Procedure, shortened: (§1)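 Visual percentage scoring against untreated controls, about 3 weeks after treatment, gave the crop injury values (100% = plants died, 0% = like controls). Compounds, as wettable powders or emulsion concentrates, were sprayed onto covering soil over sown seeds at 600 L/ha water with 0.5% additive.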

Glycine max [2] = assay: as above; conditions: effect vs untreated controls
Procedure, shortened: as §1

Oryza sativa [3] = assay: as above; conditions: application rate 20 g/ha, effect vs untreated controls
Procedure, shortened: as §1

Lolium rigidum [4] = assay: Herbicidal action pre-emergence (greenhouse pot trial)
Procedure, shortened: (§2)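 Pre-emergence: WP or EC formulations sprayed onto covering soil over sown seeds as aqueous suspension/emulsion with 0.5% additive, 600 L/ha water, at 320 g/ha or lower. Visual percent efficacy versus untreated controls after about 3 weeks in greenhouse (100% = plants dead).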

Veronica persica [5] = assay: as above; conditions: application rate 320 g/ha
Procedure, shortened: as §2

Echinochloa crus-galli [6] = assay: as above; conditions: application rate 320 g/ha, scored after about 3 weeks
Procedure, shortened: as §2

Setaria viridis [7] = assay: as above; conditions: application rate 320 g/ha, scored after about 3 weeks
Procedure, shortened: as §2

Avena fatua = assay: as above; conditions: application rate 320 g/ha
Procedure, shortened: as §2

Hordeum murinum = assay: as above; conditions: application rate 320 g/ha
Procedure, shortened: as §2

Alopecurus myosuroides [8] = assay: as above; conditions: application rate 320 g/ha, scored after about 3 weeks
Procedure, shortened: as §2

Viola tricolor [9] = assay: as above; conditions: application rate 320 g/ha, scored after about 3 weeks
Procedure, shortened: as §2

Matricaria inodora [10] = assay: as above; conditions: application rate 320 g/ha, scored after about 3 weeks
Procedure, shortened: as §2

Stellaria media [11] = assay: as above; conditions: application rate 320 g/ha, scored after about 3 weeks
Procedure, shortened: as §2

Pharbitis purpurea [12] = assay: as above; conditions: application rate 320 g/ha
Procedure, shortened: as §2

Abutilon theophrasti [13] = assay: as above; conditions: application rate 320 g/ha, scored after about 3 weeks
Procedure, shortened: as §2

Amaranthus retroflexus [14] = assay: as above; conditions: application rate 320 g/ha, scored after about 3 weeks
Procedure, shortened: as §2

Lolium rigidum [15] = assay: Herbicidal action post-emergence (greenhouse pot trial); conditions: scored visually after about 3 weeks vs untreated controls
Procedure, shortened: (§3)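 Weed seeds sown in sandy loam were grown in a greenhouse for 2–3 weeks and treated at the one-leaf stage. WP or EC formulations, with 0.5% additive, were sprayed on green parts at a water rate of 600 L/ha and at 80 g/ha or lower. Efficacy was scored visually about 3 weeks later against untreated controls.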

Veronica persica [16] = assay: as above
Procedure, shortened: as §3

Echinochloa crus-galli [17] = assay: as above; conditions: scored visually after about 3 weeks vs untreated controls
Procedure, shortened: as §3

Setaria viridis [18] = assay: as above; conditions: scored visually after about 3 weeks vs untreated controls
Procedure, shortened: as §3

Polygonum convolvulus = assay: as above; conditions: scored visually after about 3 weeks vs untreated controls
Procedure, shortened: as §3

Alopecurus myosuroides [19] = assay: as above; conditions: application rate 80 g/ha, scored visually after about 3 weeks vs untreated controls
Procedure, shortened: as §3

Viola tricolor [20] = assay: as above
Procedure, shortened: as §3

Matricaria inodora [21] = assay: as above; conditions: scored visually after about 3 weeks vs untreated controls
Procedure, shortened: as §3

Stellaria media [22] = assay: as above; conditions: scored visually after about 3 weeks vs untreated controls
Procedure, shortened: as §3

Abutilon theophrasti [23] = assay: as above; conditions: scored visually after about 3 weeks vs untreated controls
Procedure, shortened: as §3

Amaranthus retroflexus [24] = assay: as above; conditions: scored visually after about 3 weeks vs untreated controls
Procedure, shortened: as §3

Zea mays [25] = assay: Crop compatibility post-emergence (greenhouse pot trial)
Procedure, shortened: (§4)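 Visual % damage vs untreated controls, ~3 wk post-spray (100% = plants died, 0% = as control). Plants in sandy loam, greenhouse, sprayed at one-leaf stage (2–3 wk after sowing); WP/EC in water + 0.5% additive, 600 L/ha.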

Glycine max [26] = assay: as above
Procedure, shortened: as §4

Oryza sativa [27] = assay: as above
Procedure, shortened: as §4

Triticum aestivum = assay: as above; conditions: application rate 20 g/ha
Procedure, shortened: as §4

Cyperus esculentus = assay: Herbicidal action pre-emergence (greenhouse pot trial); conditions: application rate 320 g/ha
Procedure, shortened: as §2

Pharbitis purpurea [28] = assay: Herbicidal action post-emergence (greenhouse pot trial); conditions: application rate 80 g/ha
Procedure, shortened: as §3

Row | Zea mays (Efficacy in %) (Zea mays [1]) [%] | Oryza sativa (Efficacy in %) (Oryza sativa [3]) [%] | Zea mays (Efficacy in %) (Zea mays [25]; application rate 80 g/ha) [%] | Triticum aestivum (Efficacy in %) (Triticum aestivum) [%] | Glycine max (Efficacy in %) (Glycine max [2]; application rate 20 g/ha) [%] | Compound | Veronica persica (Efficacy in %) (Veronica persica [5]) [%] | Echinochloa crus-galli (Efficacy in %) (Echinochloa crus-galli [6]) [%] | Setaria viridis (Efficacy in %) (Setaria viridis [7]) [%] | Avena fatua (Efficacy in %) (Avena fatua) [%] | Hordeum murinum (Efficacy in %) (Hordeum murinum) [%] | Alopecurus myosuroides (Efficacy in %) (Alopecurus myosuroides [8]) [%] | Viola tricolor (Efficacy in %) (Viola tricolor [9]) [%] | Matricaria inodora (Efficacy in %) (Matricaria inodora [10]) [%] | Stellaria media (Efficacy in %) (Stellaria media [11]) [%] | Pharbitis purpurea (Efficacy in %) (Pharbitis purpurea [12]) [%] | Abutilon theophrasti (Efficacy in %) (Abutilon theophrasti [13]) [%] | Amaranthus retroflexus (Efficacy in %) (Amaranthus retroflexus [14]) [%] | Alopecurus myosuroides (Efficacy in %) (Alopecurus myosuroides [19]) [%] | Lolium rigidum (Efficacy in %) (Lolium rigidum [4]; application rate 320 g/ha) [%] | Cyperus esculentus (Efficacy in %) (Cyperus esculentus) [%] | other results
1 | 0 | 0 | 20 | 20 |  | CSCCNC(=O)C(C)Sc1cc(-n2c(=O)cc(C(F)(F)F)n(C)c2=O)c(F)cc1Cl (stereo not shown) [I.1-181] | 100 | 100 | 100 | 100 | 90 | 100 | 100 | 100 | 100 | 100 | 100 | 100 | 80 |  |  | Glycine max (Efficacy in %) (Glycine max [2]; application rate 80 g/ha): 20%; Lolium rigidum (Efficacy in %) (Lolium rigidum [4]; application rate 80 g/ha): 100%; Lolium rigidum (Efficacy in %) (Lolium rigidum [15]; application rate 20 g/ha): 80%; Veronica persica (Efficacy in %) (Veronica persica [16]; application rate 20 g/ha): 100%; Echinochloa crus-galli (Efficacy in %) (Echinochloa crus-galli [17]; application rate 20 g/ha): 100%; Setaria viridis (Efficacy in %) (Setaria viridis [18]; application rate 20 g/ha): 100%; Polygonum convolvulus (Efficacy in %) (Polygonum convolvulus; application rate 20 g/ha): 100%; Viola tricolor (Efficacy in %) (Viola tricolor [20]; application rate 20 g/ha): 100%; Matricaria inodora (Efficacy in %) (Matricaria inodora [21]; application rate 20 g/ha): 100%; Stellaria media (Efficacy in %) (Stellaria media [22]; application rate 20 g/ha): 100%; Abutilon theophrasti (Efficacy in %) (Abutilon theophrasti [23]; application rate 20 g/ha): 100%; Amaranthus retroflexus (Efficacy in %) (Amaranthus retroflexus [24]; application rate 20 g/ha): 100%; Glycine max (Efficacy in %) (Glycine max [26]; application rate 20 g/ha): 20%; Oryza sativa (Efficacy in %) (Oryza sativa [27]; application rate 80 g/ha): 10%
2 | 0 | 0 | 20 | 20 | 0 | CC(Sc1cc(-n2c(=O)cc(C(F)(F)F)n(C)c2=O)c(F)cc1Cl)C(=O)NCC1(C)CCCO1 (stereo not shown) [I.1-224] | 100 | 100 | 100 | 100 | 100 | 100 | 100 | 100 | 100 | 100 | 100 | 100 | 80 | 100 | 90 | Veronica persica (Efficacy in %) (Veronica persica [16]; application rate 80 g/ha): 100%; Setaria viridis (Efficacy in %) (Setaria viridis [18]; application rate 80 g/ha): 100%; Polygonum convolvulus (Efficacy in %) (Polygonum convolvulus; application rate 80 g/ha): 100%; Viola tricolor (Efficacy in %) (Viola tricolor [20]; application rate 80 g/ha): 100%; Matricaria inodora (Efficacy in %) (Matricaria inodora [21]; application rate 80 g/ha): 100%; Stellaria media (Efficacy in %) (Stellaria media [22]; application rate 80 g/ha): 80%; Pharbitis purpurea (Efficacy in %) (Pharbitis purpurea [28]): 100%; Abutilon theophrasti (Efficacy in %) (Abutilon theophrasti [23]; application rate 80 g/ha): 100%; Amaranthus retroflexus (Efficacy in %) (Amaranthus retroflexus [24]; application rate 80 g/ha): 100%; Oryza sativa (Efficacy in %) (Oryza sativa [27]; application rate 20 g/ha): 10%
3 | 0 | 20 |  | 20 | 10 | CC(Sc1cc(-n2c(=O)cc(C(F)(F)F)n(C)c2=O)c(F)cc1Cl)C(=O)NCC1CCCO1 (stereo not shown) [I.1-271] | 100 | 100 | 100 | 100 | 100 | 100 | 100 | 100 | 100 | 100 | 100 | 100 | 100 | 100 | 80 | Lolium rigidum (Efficacy in %) (Lolium rigidum [15]; application rate 80 g/ha): 100%; Veronica persica (Efficacy in %) (Veronica persica [16]; application rate 80 g/ha): 100%; Echinochloa crus-galli (Efficacy in %) (Echinochloa crus-galli [17]; application rate 80 g/ha): 90%; Setaria viridis (Efficacy in %) (Setaria viridis [18]; application rate 80 g/ha): 100%; Polygonum convolvulus (Efficacy in %) (Polygonum convolvulus; application rate 80 g/ha): 100%; Viola tricolor (Efficacy in %) (Viola tricolor [20]; application rate 80 g/ha): 100%; Matricaria inodora (Efficacy in %) (Matricaria inodora [21]; application rate 80 g/ha): 100%; Stellaria media (Efficacy in %) (Stellaria media [22]; application rate 80 g/ha): 100%; Pharbitis purpurea (Efficacy in %) (Pharbitis purpurea [28]): 100%; Abutilon theophrasti (Efficacy in %) (Abutilon theophrasti [23]; application rate 80 g/ha): 100%; Amaranthus retroflexus (Efficacy in %) (Amaranthus retroflexus [24]; application rate 80 g/ha): 100%; Zea mays (Efficacy in %) (Zea mays [25]; application rate 20 g/ha): 10%; Glycine max (Efficacy in %) (Glycine max [26]; application rate 5 g/ha): 20%; Oryza sativa (Efficacy in %) (Oryza sativa [27]; application rate 20 g/ha): 10%
